Like-named read-outs stand apart in the source and are kept apart here.
How the values were obtained:
BSA Site I / Site II [1] = biological target: T1, BSA Site I / Site II (Bos taurus, UniProt P02769); test: Site marker studies with phenylbutazone (Site I) and ibuprofen (Site II); assay type: binding, bovine
T1 construct: purchased Sigma-Aldrich (St. Louis, MO, USA)

serum proteins [2] = conditions: humans; cited from earlier work
serum proteins [3] = conditions: mice; cited from earlier work
serum proteins [4] = conditions: rats; cited from earlier work
BSA Site I / Site II [5] = biological target: T1, BSA Site I / Site II; parameters: method as in PMID 28513070, PMID 34946608; conditions: cited from earlier work
[6] = biological target: bovine serum albumin (BSA) (Bos taurus, UniProt P02769); test: Fluorescence quenching of BSA by ligand (binary and ternary systems; Stern Volmer, double log and van't Hoff analysis); assay type: binding
Sequence of bovine serum albumin (BSA) (P02769 25-607): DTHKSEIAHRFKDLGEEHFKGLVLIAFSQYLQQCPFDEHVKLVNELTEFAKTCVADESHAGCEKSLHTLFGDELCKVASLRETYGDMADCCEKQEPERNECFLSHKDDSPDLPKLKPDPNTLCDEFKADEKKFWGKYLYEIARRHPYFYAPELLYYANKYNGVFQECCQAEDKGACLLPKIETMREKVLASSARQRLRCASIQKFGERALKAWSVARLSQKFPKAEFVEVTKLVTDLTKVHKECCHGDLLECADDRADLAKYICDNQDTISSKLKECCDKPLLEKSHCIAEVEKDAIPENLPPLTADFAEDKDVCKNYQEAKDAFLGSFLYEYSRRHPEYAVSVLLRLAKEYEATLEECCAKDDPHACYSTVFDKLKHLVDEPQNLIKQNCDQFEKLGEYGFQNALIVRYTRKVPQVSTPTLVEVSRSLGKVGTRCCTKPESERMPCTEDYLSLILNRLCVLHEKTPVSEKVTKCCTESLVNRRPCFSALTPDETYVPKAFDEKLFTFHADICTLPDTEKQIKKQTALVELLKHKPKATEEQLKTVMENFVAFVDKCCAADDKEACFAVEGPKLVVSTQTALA
From the text: The spectrofluorometer FP-8200 (JASCO, Hachioji, Tokyo, Japan) was used to measure the fluorescence spectra. […] The inner filter effects were corrected for the reabsorption of emitted light using the equation [35]: Fcor=Fobs×e^(Aex+Aem)/2
Fcor and Fobs are the corrected and observed fluorescence in the above equation, respectively, and Aex and Aem are excitation and emission wavelengths absorbance values, respectively.
The fluorescence spectra for the protein BSA for the binary and the ternary system were recorded at 280 nm (excitation wavelength) and an emission wavelength of 300–500 nm (Figure 1a–c). […] (1) kq=Ksv/τ0 where F0 is BSA’s fluorescence intensity, and F is BSA’s fluorescence intensity in the presence of quencher. Stern Volmer constant is given as Ksv, and (Q) is quencher concentration. The kq biomolecular quenching constant and τ0 the lifetime of the fluorophore in the absence of quencher and is valued at 10^−8 s for biopolymers.
The binding constants and binding stoichiometry are were determined using a double logarithmic regression plot derived from the equation: log(F0−F)/F=log Kb+n log[Q] .

T1 sequence (P02769 25-607): as above

influence of phenylbutazone on quenching behavior and binding constant of BSA-ERL (BSA Site I / Site II [1]; Site I marker phenylbutazone)	binding constants of BSA-ERL in the presence and absence of ibuprofen (BSA Site I / Site II [1]; Site II marker ibuprofen)	binding site on BSA (BSA Site I / Site II [1]; site markers phenylbutazone and ibuprofen)	Compound	binding to serum proteins (serum proteins [2])	binding to serum proteins (serum proteins [3])	binding to serum proteins (serum proteins [4])	binding site on BSA (BSA Site I / Site II [5])	bimolecular quenching constant kq ([6]; binary system, 298 K, kq = Ksv/τ0, τ0 10^−8 s)	Stern Volmer constant Ksv ± SD ([6]; binary system, BSA 1.5 μM, 298 K)	further reduction of fluorescence intensity of the BSA-ERL system by presence of QUR ([6]; difference ternary vs binary system)
strongly influenced	similar	Site I	C#Cc1cccc(Nc2ncnc3cc(OCCOC)c(OCCOC)cc23)c1 [ERL, Erlotinib]	92%	95%	92%				
			O=c1c(O)c(-c2ccc(O)c(O)c2)oc2cc(O)cc(O)c12 [QUR, Quercetin]				Site I	46.07 × 10^12 M^−1S^−1	460,702 ± 1875 M^−1	26%

From publication PMC8874853 (Molecules, 2022)
